# Reference: patent US20240180898A1, “USE OF AMINOTHIAZOLE DERIVATIVE IN TREATMENT OF IMMUNE INFLAMMATION” (INNAMUNE PHARMACEUTICAL CO. LTD., priority 2021, published 2024)
# How the values were obtained:
# [1] = test system: macrophages derived from mouse bone marrow; test: LPS-induced secretion of inflammatory factors from macrophages, ELISA of supernatant; type: cell-based; conditions: 30 umol/L 2 hours before LPS 500 ng/ml for 24 hours; FIG. 2
# Description: macrophage grouping (in vitro):
# Cultivate macrophages derived from mouse bone marrow in vitro.
# The experiment was divided into 8 groups, namely: • Control group (untreated mouse bone marrow-derived macrophages), • LPS group (500 ng/ml LPS stimulated macrophages for 24 hours), • LPS+TJ-2 group (2 hours before LPS stimulation, administer 30 umol/L TJ-2 drug stimulation), • LPS+TJ-5 group (2 hours before LPS stimulation, administer 30 umol/L TJ-5 drug stimulation), • LPS+TJ-8 group (2 hours before LPS stimulation, administer 30 umol/L TJ-8 drug stimulation), • LPS+TJ-9 group (2 hours before LPS stimulation, administer 30 umol/L TJ-9 drug stimulation), • LPS+TJ-11 group (2 hours before LPS stimulation, administer 30 umol/L TJ-11 drug stimulation), • and LPS+TJ-12 group (2 hours before LPS stimulation, administer 30 umol/L TJ-12 drug stimulation).
# After 24 hours of LPS stimulation, the cell culture supernatant was removed and ELISA was performed to detect the concentration of various inflammatory factors in the supernatant.
# [2] = test system: mouse eczema model; test: mouse atopic dermatitis/eczema model; type: in vivo
# Description: Preparation and grouping of mouse […] model:
# Model preparation: Male C57 mice aged 6-8 weeks were treated with 2% M7309 (carboplatin) ointment on their ears once a day for 10 consecutive days.
# The experiment was divided into three groups, namely: • Eczema control group (without any treatment, eczema model group), TJ-M2010-5 systemic medication group (intraperitoneal injection), and TJ-M2010-5 local medication group (ointment group). The specific handling method is as follows: • TJ-M2010-5 systemic medication group: A mouse eczema model was taken and TJ-M2010-5 was injected intraperitoneally at a dose of 50 mg/kg, once a day, for 2 consecutive weeks. • TJ-M2010-5 local medication group: Take a mouse eczema model, apply 1% TJ-M2010-5 ointment on the skin, once a day, for 2 consecutive weeks.
# [3] = preclinical safety assessment, intravenous injection; type: in vivo
# Description: Direct intravenous injection of 30 mg/kg or more will cause elevated liver enzyme toxicity, and it has no toxic effect at 10 mg/kg.
# [4] = drug concentration in blood after skin ointment on maximum body area; type: in vivo; conditions: skin ointments applied to the maximum body area
# [5] = test system: mouse spleen derived B cells; test: R848 induced lupus like B cell immune disorder model in vitro; type: cell-based; conditions: TJ-5 10 or 20 μmol/L 3 hours before R848 500 ng/ml 48 hours
# Description: Preparation and grouping of an in vitro lupus like B cell immune disorder model:
# Model preparation: Mouse spleen derived B cells were purified using a magnetic bead sorting kit and cultured in vitro. Stimulating factor CD40L was added to maintain the long-term survival of B cells in vitro. Lupus like B cell immune disorders were induced by stimulating B cells with R848 (500 ng/ml) for 48 hours.
# The experiment is divided into four groups, namely: • Control group (without any treatment, normal cultured B cells); • R848 group (model group): Stimulate B cells with R848 (500 ng/ml) for 48 hours; • TJ-5 (10 μM) Group: First use TJ-5 (10 μmol/L) Pre stimulate B cells for 3 hours, then stimulate B cells with R848 (500 ng/ml) for 48 hours; • TJ-5 (20 μM) Group: First use TJ-5 (20 μmol/L) Pre stimulate B cells […] for 3 hours, then stimulate B cells with R848 (500 ng/ml) for 48 hours.
# Collect cells and cell culture supernatant for detection after R848 stimulation is completed.
# [6] = test system: APP/PS1 transgenic mice; test: Alzheimer's disease model, APP/PS1 transgenic mice; type: in vivo, mouse
# Description: Preparation and grouping of Alzheimer's disease mouse models:
# The experiment is divided into three groups, namely:
# Drug group (APP/PS1+INNA1605 group): APP/PSI transgenic mice were given INNA1605 at a dose of 50 mg/Kg/day (twice a day, 25 mg/Kg each time, intraperitoneal injection once, gavage once);
# Model group (APP/PSI group): APP/PSI transgenic mice were given an equal dose of solvent (ddH2O);
# Control group: C57BL/6 mice were given an equal dose of solvent (ddH2O).
# At 9 months of age, Morris water maze test was conducted to evaluate the spatial learning and memory abilities of APP/PSI mice. After the behavioral experiment was completed, pentobarbital sodium (100 mg/kg) was injected into the abdominal cavity for deep anesthesia. After fully exposing the heart and aorta through thoracotomy, a 20 ml syringe was inserted into the aorta with an infusion needle from the apex of the heart. The needle was fixed and the right atrium was cut open. 30 ml of physiological saline at 4° C. was perfused through the aorta until most of the blood flowed out. The hippocampus and cortical tissue were carefully and quickly separated and stored at −80° C.for subsequent biochemical analysis. The remaining mice were first perfused with 30 ml of 4° C. physiological saline, followed by 30 ml of pre-cooled 4% paraformaldehyde. Then, the whole brain was removed and fixed with 4% paraformaldehyde for another 48 hours. After dehydration, transparency, paraffin embedding, and sectioning, immunohistochemical analysis was performed.
# [7] = test system: CSDS depression model; test: Frustrative Depression (CSDS) model; type: in vivo, mouse; conditions: C57BL/6J mice
# Description: Male C57BL/6J mice (6-7 weeks old, 18-20 g weight) and male CD-1 mice ([…] old) were used to create a model of Frustrative Depression (CSDS). C57BL/6J mice were attacked by different CD-1 […] for 10 minutes every day for 10 consecutive days. At night, the two types of mice were kept in the same cage separated by a perforated transparent glass to maintain the pressure of the attack.
# [8] = test system: allergic rhinitis model; test: OVA allergic rhinitis (AR) model; type: in vivo, mouse
# Description: To establish a model of AR, mice were injected intraperitoneally with 25 μg ovalbumin (OVA) and 2 mg aluminum hydroxide on days 0, 7, and 14 to promote primary sensitization. One week after the primary sensitization, the secondary immunization was built. Mice were intranasally challenged with 3% OVA daily from 21 to 35 days. Animals were divided into three groups: Sham group, AR group and AR+TJ-5 group. After 35 days of OVA administration, the number of mice rubbing and sneezing within 10 min was recorded. Nasal lavage fluid was collected 12 h after OVA treatment under anesthesia.
# [9] = test system: skin wound; test: full-thickness dorsal skin wound model; type: in vivo, mouse
# Text: The mice were anesthetized with isoflurane, and 1.5×0.5 cm full-thickness defects were created on their dorsal skin. Animals were divided into three groups: Sham group, Vehicle group and TJ-5 group. After 1 week, mice were sacrificed and wound tissue was harvested for analysis.
# [10] = immunohistochemistry, vs model group
smiles,measurement,setting,value
"O=C(CCN1CCN(Cc2ccccc2)CC1)Nc1nc(-c2ccccc2)cs1 [INNA1605, 3-(4-benzylpiperazine-1-yl)-N-(4-phenylthiazole-2-yl) propionamide]",inhibitory effect on inflammatory factors compared among the compounds,[1],have the same inhibitory effect on inflammatory factors
same,"secretion of various inflammatory factors in macrophages (IL-1β, Il-6, TNF-α, IL-18, IL-17)",[1],can inhibit the secretion of various inflammatory factors in macrophages
same,"therapeutic effect, local medication","[2]; 1% ointment once a day, 2 weeks",excellent therapeutic effects
same,abnormally thickened stratum corneum,[2]; after treatment,can basically restore normal tissue structure
same,inflammation,[2]; after treatment,significantly reduced
same,various inflammatory factors in the skin,"[2]; mouse, in vivo",decreased
same,dose causing elevated liver enzyme toxicity,[3]; direct intravenous injection,≥ 30 mg/kg
same,dose with no toxic effect,[3]; direct intravenous injection,10 mg/kg
same,toxicity to the body,[3]; preclinical trial results,low toxicity to the body
same,drug concentration in the blood,[4],2 to 3 ng/mL
same,abnormal activation and differentiation of B cells,[5],can inhibit abnormal activation and differentiation of B cells
same,secretion of B cell autoantibodies and inflammatory factors,[5],inhibit the secretion of B cell autoantibodies and inflammatory factors
same,memory (Morris water maze),"[6]; 50 mg/Kg/day, 9 months of age",better memory than APP/PS1 transgenic mice treated with only ddH2O
same,"Iba-1 positive microglia (whole brain, cortex, hippocampus)",[6]; [10],significantly reduced compared to the model group
same,"brain Aβ deposition (whole brain, cortex, hippocampus)",[6]; [10],significantly less
same,induced depressive behavior and neuroinflammation in the brain,[7],significantly improves induced depressive behavior and neuroinflammation in the brain
same,"levels of IL-4, IL-1β, IL-18 and TNF-α in nasal mucosa","[8]; mouse, in vivo",decreased
same,sneezing and nasal rubbing,[8]; within 10 min after 35 days of OVA,relieved these symptoms
same,skin scar formation,[9]; FIG. 42,prevents skin scar formation
same,"levels of IL-1β, IL-6, TNF-α, G-CSF, Col I, and α-SMA mRNAs in wound tissue","[9]; after 1 week, vs untreated",significantly lower
same,wound area,[9]; vs vehicle,significant decrease in wound area compared to the vehicle
